Among the data in US20240092761A1, “QUINAZOLINE COMPOUNDS AND METHODS OF USE” (IAMBIC THERAPEUTICS, INC., priority 2022, published 2024) are IC50 values, retold here.

For one test, the target named is CDK6/Cyclin D3 (Homo sapiens (Human), UniProt Q00534). Nature of the test: CDK6/Cyclin D3 ADP-Glo Kinase Assay. Format: biochemical. The conditions noted are these: 100 uM ATP, read-out: CDK6/ CyclinD3 IC50. The gist of the method:
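Recombinant human CDK6/Cyclin D3 pre-incubated 30 min with inhibitor at room temperature, then reaction started with ATP/substrate and run 90 min at room temperature. ADP formed detected by ADP-Glo luminescence; IC50 from a 4-parameter fit of fractional velocity versus inhibitor concentration.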

Test [1] concerns the target CDK2/Cyclin E1 full length (Homo sapiens (Human), UniProt P24941). Description: CDK2/Cyclin E1 Full Length ADP-Glo Kinase Assay. The conditions noted are these: 20 uM ATP, read-out: CDK2/ CyclinE1 IC50. Format: biochemical. Put shortly: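 Full-length human CDK2/Cyclin E1 (0.328 nM) pre-incubated 30 min with inhibitor at RT, then reacted 90 min at RT with 20 uM ATP (Km 64.78 uM) and 0.75 uM substrate in pH 7.5 HEPES, 2% DMSO. ADP measured by ADP-Glo luminescence; IC50 from 4-parameter fit of fractional velocity.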

In another test the test system is OVCAR-3 cells. Description: Cell Growth Inhibition, OVCAR-3 (CellTiterGlo, 6 days). Type of test: cell-based. The conditions noted are these: OVCAR-3, 6-day treatment, CellTiterGlo 2.0. Put shortly:
(§1)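 MCF-7 and OVCAR-3 cells (RPMI, 10% FBS) were seeded at 500 cells/well onto compound, typically 10–10,000 nM in half-log dilutions. Growth proceeded 6 days at 37 °C, then CellTiterGlo luminescence was read. % inhibition was taken versus control, and IC50 came from a four-parameter variable-slope fit.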

For the next test, the system named is MCF-7 cells. Nature of the test: Cell Growth Inhibition, MCF-7 (CellTiterGlo, 6 days). Format: cell-based. The conditions noted are these: MCF-7, 6-day treatment, CellTiterGlo 2.0. Put shortly: as §1
Another test deals with CDK4/Cyclin D1 (Homo sapiens (Human), UniProt P11802). Description: CDK4/Cyclin D1 Mobility Shift Assay (MSA). Type of test: biochemical. The conditions noted are these: 0.2 mM ATP, read-out: CDK4/ CyclinD1 MSA IC50. Put shortly:
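Reaction: 2.5 nM enzyme, 0.2 mM ATP, 1.5 µM 5-FAM-Dyrktide, 10 mM MgCl2, 2 mM DTT, 2% DMSO, 50 mM HEPES pH 7.5. Inhibitor was preincubated 30 min at 22 °C, then the reaction ran 180 min before EDTA stop. Microfluidic separation of substrate and product gave % conversion, and IC50 came from a 4-parameter fit.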

A further test deals with CDK1/Cyclin B1 (Homo sapiens (Human), UniProt P06493). Nature of the test: CDK1/Cyclin B1 ADP-Glo Kinase Assay. Format: biochemical. The conditions noted are these: 80 uM ATP. The gist of the method:
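CDK1/cyclin B1 (4.917 nM) preincubated 30 min with inhibitor (2% DMSO), then 80 µM ATP (Km 78.6 µM) and 0.75 µM substrate added; 90 min, room temperature, pH 7.5. ADP measured by ADP-Glo luminescence; IC50 from 4-parameter fit.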

Where only a bound is given, the exact number is not on record here.

Sequence of CDK1/Cyclin B1 (P06493 whole entry): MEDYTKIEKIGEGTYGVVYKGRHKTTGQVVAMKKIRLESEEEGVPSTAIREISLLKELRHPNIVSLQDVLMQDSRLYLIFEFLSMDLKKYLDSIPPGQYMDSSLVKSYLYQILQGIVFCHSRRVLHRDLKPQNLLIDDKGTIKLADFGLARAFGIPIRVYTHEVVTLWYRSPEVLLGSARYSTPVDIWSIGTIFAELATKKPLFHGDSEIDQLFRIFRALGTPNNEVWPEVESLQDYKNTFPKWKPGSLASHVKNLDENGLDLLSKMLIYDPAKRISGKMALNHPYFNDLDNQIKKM
Sequence of CDK1/Cyclin B1 (P14635 whole entry partner): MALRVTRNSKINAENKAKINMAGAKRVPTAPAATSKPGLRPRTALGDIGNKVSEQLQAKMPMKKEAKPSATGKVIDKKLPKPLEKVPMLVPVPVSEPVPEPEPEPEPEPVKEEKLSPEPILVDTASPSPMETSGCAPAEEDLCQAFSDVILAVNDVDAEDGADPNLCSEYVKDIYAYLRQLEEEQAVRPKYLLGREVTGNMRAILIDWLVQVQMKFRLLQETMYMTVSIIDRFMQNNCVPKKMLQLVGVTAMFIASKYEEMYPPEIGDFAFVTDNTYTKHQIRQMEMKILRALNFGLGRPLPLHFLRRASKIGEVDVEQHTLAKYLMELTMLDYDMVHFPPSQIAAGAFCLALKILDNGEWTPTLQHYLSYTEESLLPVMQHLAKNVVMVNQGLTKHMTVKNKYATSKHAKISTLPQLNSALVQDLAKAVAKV
Sequence of CDK4/Cyclin D1 (P11802 whole entry): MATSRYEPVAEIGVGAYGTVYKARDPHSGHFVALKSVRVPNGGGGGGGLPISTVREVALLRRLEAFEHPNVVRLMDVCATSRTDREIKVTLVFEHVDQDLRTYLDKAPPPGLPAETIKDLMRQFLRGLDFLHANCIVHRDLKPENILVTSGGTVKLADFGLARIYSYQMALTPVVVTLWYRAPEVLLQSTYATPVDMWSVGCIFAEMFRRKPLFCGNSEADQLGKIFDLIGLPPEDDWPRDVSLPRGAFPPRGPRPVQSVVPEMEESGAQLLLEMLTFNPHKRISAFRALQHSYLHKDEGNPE
Sequence of CDK4/Cyclin D1 (P24385 whole entry partner): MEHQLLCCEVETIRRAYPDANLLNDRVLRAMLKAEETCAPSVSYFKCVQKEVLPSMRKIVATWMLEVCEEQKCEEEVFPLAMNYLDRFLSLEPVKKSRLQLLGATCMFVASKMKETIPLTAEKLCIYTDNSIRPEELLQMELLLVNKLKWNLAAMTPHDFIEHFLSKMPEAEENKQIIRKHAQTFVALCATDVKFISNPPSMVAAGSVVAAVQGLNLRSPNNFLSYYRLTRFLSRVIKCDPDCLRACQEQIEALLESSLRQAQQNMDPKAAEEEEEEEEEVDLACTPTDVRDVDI
Sequence of CDK6/Cyclin D3 (Q00534 whole entry): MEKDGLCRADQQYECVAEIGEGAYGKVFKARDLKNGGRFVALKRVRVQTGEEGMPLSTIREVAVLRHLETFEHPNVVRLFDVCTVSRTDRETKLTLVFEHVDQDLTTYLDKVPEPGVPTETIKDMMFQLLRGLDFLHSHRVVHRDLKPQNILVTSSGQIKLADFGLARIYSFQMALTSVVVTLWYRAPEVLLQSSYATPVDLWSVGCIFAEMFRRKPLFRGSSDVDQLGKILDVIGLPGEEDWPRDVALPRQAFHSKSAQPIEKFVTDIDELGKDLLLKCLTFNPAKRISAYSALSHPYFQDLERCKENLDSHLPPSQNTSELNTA
Sequence of CDK6/Cyclin D3 (P30281 whole entry partner): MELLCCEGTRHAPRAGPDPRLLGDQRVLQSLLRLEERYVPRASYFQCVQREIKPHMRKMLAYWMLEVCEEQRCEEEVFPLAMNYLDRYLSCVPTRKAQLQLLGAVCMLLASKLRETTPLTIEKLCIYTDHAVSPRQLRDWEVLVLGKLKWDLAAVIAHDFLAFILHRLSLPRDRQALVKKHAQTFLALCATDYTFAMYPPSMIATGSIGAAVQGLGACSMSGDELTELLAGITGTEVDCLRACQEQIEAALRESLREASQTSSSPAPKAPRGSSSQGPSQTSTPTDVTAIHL

On to `CC(=O)N1CCC2(CCN(c3cccc4cnc(Nc5ccc(N6CC7(C6)CC(F)(F)C7)cn5)nc34)C2)C1` (stereo not drawn) [Example 47, 1-(7-(2-((5-(6,6-difluoro-2-azaspiro[3.3]heptan-2-yl)pyridin-2-yl)amino)quinazolin-8-yl)-2,7-diazaspiro[4.4]nonan-2-yl)ethan-1-one], for which the IC50 at CDK6/Cyclin D3 was 200 to 500 nM; in test [1], over 2000 nM; with OVCAR-3 cells (Homo sapiens, 144 h) it was over 2000 nM; in the test with MCF-7 cells (Homo sapiens, MCF7, 144 h), over 2000 nM; at CDK4/Cyclin D1, 200 to 500 nM; on CDK1/Cyclin B1, over 2000 nM.

Take `CN1C[C@@H]2[C@H](C1)[C@H]2Nc1ncc2cc(C(F)F)cc(N3CCC4(C3)CS(=O)(=O)C4)c2n1` [Example 54, 6-(6-(difluoromethyl)-2-(((1R,5S,6s)-3-methyl-3-azabicyclo[3.1.0]hexan-6-yl)amino)quinazolin-8-yl)-2-thia-6-azaspiro[3.4]octane 2,2-dioxide]: the IC50 at CDK6/Cyclin D3 is 200 to 500 nM; in test [1], over 2000 nM; in the test on OVCAR-3 cells, over 2000 nM; with MCF-7 cells, over 2000 nM; at CDK4/Cyclin D1, under 200 nM; at CDK1/Cyclin B1 it was over 2000 nM.

Consider `CS(=O)(=O)N1CCC(Nc2ncc3cccc(N4CCC5(C4)CS(=O)(=O)C5)c3n2)CC1` [Example 4, 6-(2-((1-(methylsulfonyl)piperidin-4-yl)amino)quinazolin-8-yl)-2-thia-6-azaspiro[3.4]octane 2,2-dioxide], for which the IC50 on CDK6/Cyclin D3 is under 200 nM; in test [1] it was under 200 nM; in the test with OVCAR-3 cells (Homo sapiens, 144 h), over 2000 nM; with MCF-7 cells (Homo sapiens, MCF7, 144 h), 500 to 2000 nM; on CDK4/Cyclin D1 it was under 200 nM; at CDK1/Cyclin B1 it was 500 to 2000 nM.

For `CS(=O)(=O)N1CCC(Nc2ncc3cccc(N4CCC5(CNC5)C4)c3n2)CC1` [Example 15, N-(1-(methylsulfonyl)piperidin-4-yl)-8-(2,6-diazaspiro[3.4]octan-6-yl)quinazolin-2-amine], the IC50 was 200 to 500 nM on CDK6/Cyclin D3; under 200 nM in test [1]; 500 to 2000 nM in the test with OVCAR-3 cells (Homo sapiens, 144 h); 200 to 500 nM in the test on MCF-7 cells (Homo sapiens, MCF7, 144 h); under 200 nM on CDK4/Cyclin D1; 200 to 500 nM against CDK1/Cyclin B1.
